Earlier results as cited in patent US8372995B2, “Crystalline solid forms of tigecycline and methods of preparing same” (priority 2005, dated 2013).

What was measured:
[1] = system: organisms carrying either of the two major forms of tetracycline resistance: efflux and ribosomal protection
[2] = system: methicillin-resistant Staphylococcus aureus
[3] = oral
[4] = system: penicillin-resistant Streptococcus pneumoniae
[5] = system: vancomycin-resistant enterococci

## CN(C)c1cc(NC(=O)CNC(C)(C)C)c(O)c2c1C[C@H]1C[C@H]3[C@H](N(C)C)C(O)=C(C(N)=O)C(=O)[C@@]3(O)C(O)=C1C2=O [Tigecycline]
[1]
  activity against organisms carrying tetracycline resistance (efflux, ribosomal protection): active
[2]
  activity against methicillin-resistant Staphylococcus aureus: active
[3]
  bioavailability when given orally: generally poor
[4]
  activity against penicillin-resistant Streptococcus pneumoniae: active
[5]
  activity against vancomycin-resistant enterococci: active
